Values joined by “and” are separate entries in the source; they are usually repeats but may differ in a detail not shown here. Identical values can stand only once.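 Cultured in 96-well plates, cells were exposed to test compound for 48 hours across five concentrations. The concentration for 50% growth inhibition is given as GI50. TGI denotes the concentration required for complete inhibition of growth.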

Test systems include SK-MEL-5 melanoma; SF-268 CNS; HCC-2998 colon; OVCAR-4 ovarian; OVCAR-8 ovarian; 786-0 renal; IGROV1 ovarian; SK-MEL-28 melanoma; RXF 393 renal; ACHN renal.
Assay in all cases: growth of human tumour cells (NCI), 48 h

In the case of `O=C(O)CC(NC(=O)CP(=O)(O)O)C(=O)O` (stereo not given), the TGI with SK-MEL-5 melanoma is greater than 10000 µM; in the experiment with SF-268 CNS it was greater than 10000 µM; with HCC-2998 colon, greater than 10000 µM; with OVCAR-4 ovarian, greater than 10000 µM; with OVCAR-8 ovarian, greater than 8110 µM; in the experiment on 786-0 renal it was greater than 6000 µM. The TGI was greater than 8280 µM in the experiment with IGROV1 ovarian, greater than 10000 µM with SK-MEL-28 melanoma, greater than 10000 µM in the experiment on RXF 393 renal and greater than 10000 µM in the experiment on ACHN renal. The GI50 was 95.8 µM with SF-268 CNS, 71 µM with 786-0 renal, 389 µM in the experiment on SK-MEL-28 melanoma and 90.5 µM with RXF 393 renal.
On to `CC(C)C(=O)Nc1nc2c(ncn2C2OC(CO)C(O)C2O)c(=O)[nH]1` (stereo not given), for which the TGI in the experiment with SK-MEL-5 melanoma, in the experiment with SF-268 CNS, in the experiment on HCC-2998 colon, in the experiment with OVCAR-4 ovarian, with OVCAR-8 ovarian and in the experiment with 786-0 renal was greater than 100 µM in each case. For the same compound, the TGI with IGROV1 ovarian, with SK-MEL-28 melanoma, with RXF 393 renal and with ACHN renal was greater than 100 µM in each case.
Consider `CC(=O)Oc1ccccc1C(=O)Nc1ncc([N+](=O)[O-])s1`, for which the GI50 in the experiment on SK-MEL-5 melanoma is 1.5 µM; with SF-268 CNS it was 3.35 µM; in the experiment on HCC-2998 colon, 2.03 µM; in the experiment with OVCAR-4 ovarian it was 2.05 µM; in the experiment on OVCAR-8 ovarian, 2.73 µM; with 786-0 renal, 2.35 µM. Further, the GI50 in the experiment on IGROV1 ovarian was 2.85 µM; in the experiment on SK-MEL-28 melanoma, 2.48 µM; with RXF 393 renal, 2.06 µM; in the experiment on ACHN renal it was 2.74 µM. Moreover, the TGI was 3.7 µM and 33 µM with SK-MEL-5 melanoma; greater than 79.7 µM with SF-268 CNS; 13.9 µM and > 100 µM with HCC-2998 colon; 13.8 µM and > 100 µM with OVCAR-4 ovarian; 25.1 µM and > 100 µM with OVCAR-8 ovarian; 20.8 µM and > 100 µM in the experiment with IGROV1 ovarian. Besides, the TGI is 15.2 µM and > 100 µM in the experiment with SK-MEL-28 melanoma; 13.1 µM and 29.7 µM with RXF 393 renal; 11.3 µM and > 100 µM in the experiment on ACHN renal.
Turning to `O=S(=O)(c1ccccc1)C1CN2OC1(S(=O)(=O)c1ccccc1)CC2c1ccc(Br)cc1` (stereo not given), the TGI in the experiment on SK-MEL-5 melanoma, with SF-268 CNS, with HCC-2998 colon, in the experiment on OVCAR-4 ovarian, in the experiment on OVCAR-8 ovarian and with 786-0 renal was greater than 100 µM each time. The TGI was greater than 100 µM with IGROV1 ovarian, greater than 100 µM in the experiment on SK-MEL-28 melanoma, 46.5 µM in the experiment on RXF 393 renal and greater than 100 µM in the experiment on ACHN renal.
In the case of `Cc1nn(C(=O)c2ccc(Cl)cc2)c2c1C(/C=C/c1ccccc1)SC(N)=N2` (stereo not given), the TGI in the experiment on SK-MEL-5 melanoma, in the experiment on SF-268 CNS, in the experiment on HCC-2998 colon, in the experiment with OVCAR-4 ovarian, in the experiment on OVCAR-8 ovarian and in the experiment on 786-0 renal was greater than 10 µM each time. Also, the TGI with IGROV1 ovarian, with SK-MEL-28 melanoma, in the experiment with RXF 393 renal and in the experiment on ACHN renal was greater than 10 µM in each case.
Take `O=[N+]([O-])c1ccc(N2N=C(c3ccc(NCc4nc5ccccc5[nH]4)cc3)CC2c2ccco2)cc1` (stereo not given): the TGI with SK-MEL-5 melanoma is 31.9 µM; with SF-268 CNS it was greater than 100 µM; in the experiment with HCC-2998 colon it was 94.1 µM; with OVCAR-4 ovarian, 64.8 µM; in the experiment on OVCAR-8 ovarian, 57.7 µM; in the experiment with 786-0 renal it was greater than 100 µM. Also, the TGI in the experiment on IGROV1 ovarian, in the experiment on SK-MEL-28 melanoma, in the experiment on RXF 393 renal and in the experiment with ACHN renal was greater than 100 µM throughout.
With `CC(C)(S)C(N)C(=O)O` (stereo not given), the GI50 with SK-MEL-5 melanoma is 895 µM; in the experiment with SF-268 CNS, 1740 µM; with HCC-2998 colon, 1450 µM; in the experiment with OVCAR-4 ovarian, greater than 5000 µM; in the experiment with OVCAR-8 ovarian it was 3450 µM; in the experiment on 786-0 renal, greater than 5000 µM. In addition, the GI50 in the experiment on SK-MEL-28 melanoma, in the experiment with RXF 393 renal and in the experiment with ACHN renal was greater than 5000 µM throughout. In addition, the TGI was 2390 µM and > 100 µM with SK-MEL-5 melanoma; greater than 5000 µM in the experiment with SF-268 CNS; 4340 µM in the experiment on HCC-2998 colon; greater than 5000 µM with OVCAR-4 ovarian; greater than 5000 µM in the experiment on OVCAR-8 ovarian; greater than 5000 µM in the experiment on 786-0 renal. Besides, the TGI is greater than 100 µM in the experiment on IGROV1 ovarian, greater than 5000 µM with SK-MEL-28 melanoma, greater than 5000 µM in the experiment on RXF 393 renal and greater than 5000 µM with ACHN renal.
For the compound `NC(=O)c1cc(S(=O)(=O)Nc2nnc(-c3ccccc3)c(-c3ccccc3)n2)c(SCc2ccccc2)cc1Cl`, the GI50 in the experiment on SK-MEL-5 melanoma was greater than 79.6 µM; with SF-268 CNS, greater than 87.5 µM; with HCC-2998 colon it was greater than 100 µM; in the experiment with OVCAR-8 ovarian, greater than 50.3 µM; in the experiment on 786-0 renal, greater than 100 µM; with IGROV1 ovarian, greater than 54.7 µM. Also, the results for the GI50 in the experiment with RXF 393 renal and with ACHN renal were 75.3 µM and greater than 100 µM, respectively. For the same compound, the TGI is greater than 100 µM with SK-MEL-5 melanoma; greater than 100 µM in the experiment with SF-268 CNS; greater than 100 µM in the experiment on HCC-2998 colon; greater than 64.6 µM in the experiment on OVCAR-4 ovarian; greater than 77.5 µM with OVCAR-8 ovarian; greater than 100 µM in the experiment on 786-0 renal. In addition, the TGI in the experiment on IGROV1 ovarian was greater than 94.3 µM; with SK-MEL-28 melanoma, greater than 100 µM; in the experiment with RXF 393 renal, greater than 100 µM; in the experiment with ACHN renal it was greater than 100 µM.
For `O=C1NC(=O)/C(=C\c2ccccc2)C2=C1CCCC2`, the GI50 with SK-MEL-5 melanoma is 1.81 µM; in the experiment on SF-268 CNS it was 4.06 µM; in the experiment with HCC-2998 colon it was 7.46 µM; with OVCAR-4 ovarian, 14.8 µM; in the experiment with OVCAR-8 ovarian, 9.92 µM; in the experiment on 786-0 renal it was 7.6 µM. The GI50 with IGROV1 ovarian was 13 µM; with SK-MEL-28 melanoma, 4.14 µM; in the experiment with RXF 393 renal, 6.52 µM; in the experiment with ACHN renal, 5.78 µM. Moreover, the TGI is 3.52 µM with SK-MEL-5 melanoma; 14.8 µM in the experiment on SF-268 CNS; 14 µM in the experiment on HCC-2998 colon; 29.2 µM in the experiment with OVCAR-4 ovarian; 41.1 µM in the experiment with OVCAR-8 ovarian; 20.2 µM in the experiment on 786-0 renal. Moreover, the TGI in the experiment with IGROV1 ovarian is 32.4 µM; with SK-MEL-28 melanoma, 13.9 µM; in the experiment on RXF 393 renal, 59.8 µM; in the experiment with ACHN renal it was 18.6 µM.
For `COc1cc2c(OC)cc1CSCc1sc(C)c(c1Br)CSC2`, the TGI with SK-MEL-5 melanoma, in the experiment with SF-268 CNS, in the experiment on HCC-2998 colon, in the experiment on OVCAR-4 ovarian, in the experiment on OVCAR-8 ovarian and in the experiment on 786-0 renal was greater than 100 µM throughout. The TGI in the experiment with IGROV1 ovarian, in the experiment on SK-MEL-28 melanoma, in the experiment with RXF 393 renal and in the experiment with ACHN renal was greater than 100 µM in each case.
